# Target: Urease (Canavalia ensiformis, UniProt P07374)
# Assay: Urease Inhibition Assay
# Method: Reaction mixtures comprising 25 μL of enzyme (jack bean urease) solution and 55 μL of buffers containing 100 mM urea were incubated with 5 μL of test compounds (0.5 mM concentration) at 30°C for 15 min in 96-well plates. Urease activity was determined by measuring ammonia production using the indophenol method as described by weather burn14. Briefly, 45 μL each phenol reagent (1% w/v phenol and 0.005% w/v sodium nitroprusside) and 70 μL of alkali reagent (0.5% w/v NaOH and0.1% active chloride NaOCl) were added to each well. The increasing absorbance at 630 nm was measured after 50 min, using a microplate reader (Molecular Device). All reactions were performed in triplicate in a final volume of 200 μL.
# Sequence of Urease (P07374 whole entry): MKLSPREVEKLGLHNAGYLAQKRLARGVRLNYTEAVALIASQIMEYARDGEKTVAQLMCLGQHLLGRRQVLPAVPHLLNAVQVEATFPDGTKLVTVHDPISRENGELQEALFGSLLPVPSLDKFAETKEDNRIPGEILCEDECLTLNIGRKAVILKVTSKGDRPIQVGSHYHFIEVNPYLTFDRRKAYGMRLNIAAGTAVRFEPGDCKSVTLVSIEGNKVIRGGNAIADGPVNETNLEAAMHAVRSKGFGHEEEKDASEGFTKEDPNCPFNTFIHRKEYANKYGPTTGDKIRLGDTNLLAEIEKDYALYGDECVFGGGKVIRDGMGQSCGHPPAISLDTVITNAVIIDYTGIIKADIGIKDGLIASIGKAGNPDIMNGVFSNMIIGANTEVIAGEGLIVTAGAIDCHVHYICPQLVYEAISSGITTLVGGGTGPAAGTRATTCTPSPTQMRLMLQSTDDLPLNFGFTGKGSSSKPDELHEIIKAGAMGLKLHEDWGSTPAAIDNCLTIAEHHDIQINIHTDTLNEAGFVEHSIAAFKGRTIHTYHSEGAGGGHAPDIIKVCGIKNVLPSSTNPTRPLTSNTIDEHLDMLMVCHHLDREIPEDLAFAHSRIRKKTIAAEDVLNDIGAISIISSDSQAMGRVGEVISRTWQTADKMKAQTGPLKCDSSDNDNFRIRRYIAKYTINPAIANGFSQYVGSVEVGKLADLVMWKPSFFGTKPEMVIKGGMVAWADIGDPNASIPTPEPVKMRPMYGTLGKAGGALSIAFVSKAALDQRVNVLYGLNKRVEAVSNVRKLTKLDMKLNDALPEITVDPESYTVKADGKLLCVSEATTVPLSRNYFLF
row,SMILES,IC50
1,CC(C)CCCCc1ccc(O[C@@H]2OC(CO)[C@H](O)[C@@H](O)C2O)cc1 (some centres not stated) [Indigoferin-B (2)],29.7 µM
2,CC(O)CCCCC(=O)c1c(O)cc(O)cc1O (configuration not stated) [Indigoferin-C (3)],23.3 µM
